The record followed here is patent US9540343B2 (Gilead Sciences, Inc., priority 2011, dated 2017).

In one data set the test system is HIV-IIIb. In words: Test A: Antiviral assay in MT4 cells. The conditions noted are these: Human immunodeficiency virus 1, IIIB, MT4, 120 h, read-out: % inhibition at 2 μM, percent inhibition of virus-induced cell killing, from dose response curve at 2 uM drug; MT-4 cells infected with HIV-IIIb, 5 days, CellTiter-Glo. Type of data set: cell-based, HIV-1.
A short description of the next data set: in vitro. An outline of the steps: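 Cytoprotection read-out: CellTiter-Glo chemiluminescence after 5 days at 37 °C of HIV-IIIb-infected MT-4 cells (m.o.i. 0.003) with compound in 10-point 3-fold dilutions, quadruplicate, 10% FBS. Cytotoxicity (CC50) measured identically without virus.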
[1] abbreviates: human, uninfected MT-4 cells, CC50 (nM), same protocol as Test A, CellTiter-Glo.

Bounds are passed on as bounds.

As to `COc1ccc2c(c1)C(CC(=O)N[C@@H](Cc1cc(F)cc(F)c1)c1ncccc1-c1ccc(F)c(C(N)=O)c1)C(=O)N2` (stereo partly drawn) [Example 202, 5-(2-((1S)-2-(3,5-difluorophenyl)-1-(2-(5-methoxy-2-oxoindolin-3-yl)acetamido)ethyl)pyridin-3-yl)-2-fluorobenzamide], in the data set on HIV-IIIb, the inhibition at 2 µM was determined as 1%. In the data set “in vitro” (setting [1]), this compound registered a CC50 at 5 days of over 53200 nM.
`NC(=O)c1cc(-c2cccnc2[C@H](Cc2cc(F)cc(F)c2)NC(=O)Cn2nc3c(c2C(F)(F)F)COC3)ccc1F` [Example 203D, (S)-5-(2-(2-(3,5-difluorophenyl)-1-(2-(3-(trifluoromethyl)-4,6-dihydro-2H-furo[3,4-c]pyrazol-2-yl)acetamido)ethyl)pyridin-3-yl)-2-fluorobenzamide]: the inhibition at 2 µM in the data set with HIV-IIIb was 0%. The compound also showed a CC50 at 5 days in the data set “in vitro” (setting [1]) of over 53200 nM.
Consider `NC(=O)c1cc(-c2cccnc2[C@H](Cc2cccc(F)c2)NC(=O)Cn2nc(C(F)(F)F)c3c2CCS(=O)(=O)C3)ccc1F` [Example 204, (S)-5-(2-(1-(2-(5,5-dioxido-3-(trifluoromethyl)-6,7-dihydrothiopyrano[4,3-c]pyrazol-1(4H)-yl)acetamido)-2-(3-fluorophenyl)ethyl)pyridin-3-yl)-2-fluorobenzamide], for which, in the data set on HIV-IIIb, the inhibition at 2 µM came out at 1%. Further, the CC50 at 5 days in the data set “in vitro” (setting [1]) was over 53200 nM.
In the same order, the values of `Cc1cc(C)c2c(c1)C(CC(=O)N[C@@H](Cc1cc(F)cc(F)c1)c1ncccc1-c1ccc(F)c(C(N)=O)c1)C(=O)N2` (stereo partly drawn) [Example 205, 5-(2-((1S)-2-(3,5-difluorophenyl)-1-(2-(5,7-dimethyl-2-oxoindolin-3-yl)acetamido)ethyl)pyridin-3-yl)-2-fluorobenzamide] are 12% and 13100 nM.
The matching figures for `O=C(Cn1nc(C(F)F)c2c1C(F)(F)C1CC21)N[C@@H](Cc1cc(F)cc(F)c1)c1ncccc1-c1ccc(OCC2CC2)cc1` (stereo partly drawn) [Example 206, N—((S)-1-(3-(4-(cyclopropylmethoxy)phenyl)pyridin-2-yl)-2-(3,5-difluorophenyl)ethyl)-2-(3-(difluoromethyl)-5,5-difluoro-3b,4,4a,5-tetrahydro-1H-cyclopropa[3,4]cyclopenta[1,2-c]pyrazol-1-yl)acetamide]: 54% and 20000 nM.
In the same order, the values of `CC(C)Cc1cc(C(F)(F)F)nn1CC(=O)N[C@@H](Cc1cc(F)cc(F)c1)c1ncccc1-c1ccc(F)c(C(N)=O)c1` [Example 207C, (S)-5-(2-(2-(3,5-difluorophenyl)-1-(2-(5-isobutyl-3-(trifluoromethyl)-1H-pyrazol-1-yl)acetamido)ethyl)pyridin-3-yl)-2-fluorobenzamide] are 16% and 13200 nM.
On to `COCc1cc(C(F)(F)F)nn1CC(=O)N[C@@H](Cc1cc(F)cc(F)c1)c1ncccc1-c1ccc(F)c(C(N)=O)c1` [Example 208D], for which the inhibition at 2 µM with HIV-IIIb was found to be 2%. This compound also returned a CC50 at 5 days in the data set “in vitro” (human, CC50 (nM), uninfected MT-4 cells, same protocol as Test A, CellTiter-Glo) of over 53200 nM.
Turning to `NC(=O)c1cc(-c2cccnc2[C@H](Cc2cc(F)cc(F)c2)NC(=O)Cn2nc(C(N)=O)c3c2CC2CC32)ccc1F` (stereo partly drawn) [Example 209, 1-(2-(((S)-1-(3-(3-carbamoyl-4-fluorophenyl)pyridin-2-yl)-2-(3,5-difluorophenyl)ethyl)amino)-2-oxoethyl)-3b,4,4a,5-tetrahydro-1H-cyclopropa[3,4]cyclopenta[1,2-c]pyrazole-3-carboxamide], the inhibition at 2 µM in the data set with HIV-IIIb was determined as 51%. The same compound had a CC50 at 5 days in “in vitro” (setting [1]) of over 53200 nM.
The matching figures for `CN1Cc2nn(CC(=O)N[C@@H](Cc3cc(F)cc(F)c3)c3ncccc3-c3ccc(F)c(C(N)=O)c3)c(C(F)(F)F)c2C1` [Example 210, (S)-5-(2-(2-(3,5-difluorophenyl)-1-(2-(5-methyl-3-(trifluoromethyl)-5,6-dihydropyrrolo[3,4-c]pyrazol-2(4H)-yl)acetamido)ethyl)pyridin-3-yl)-2-fluorobenzamide]: 0% and over 53200 nM.
